Source: ChEMBL document CHEMBL1201862, “PubChem BioAssay data set” (2004)
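Method: 48-hour compound exposure of cells in 96-well plates, five concentrations, linear interpolation of endpoints. GI50 = concentration required for 50% inhibition of growth.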 Activity calls are given as the source filed them. Cut-off read from the data, not from the text of the source: active = GI50 up to about 1.1 µM and inactive = higher.

Assays:
Test in all cases: growth of human tumour cells (NCI), 48 h
[1] = tested on: A549
[2] = tested on: ACHN
[3] = tested on: DMS-273
[4] = tested on: HCT-116
[5] = tested on: HCT-15
[6] = tested on: NCI-H23
[7] = tested on: RPMI-8226
[8] = tested on: SF-539
[9] = tested on: TK-10
[10] = tested on: UACC-257
[11] = tested on: UACC-62
[12] = tested on: UO-31
[13] = tested on: CAKI-1
[14] = tested on: OVCAR-5
[15] = tested on: BT-549
[16] = tested on: DU-145
[17] = tested on: HOP-92
[18] = tested on: Hs-578T
[19] = tested on: NCI/ADR-RES
[20] = tested on: T47D

CCOC(C[C@H](O)[C@H]1COC(=S)S1)OCC
GI50 [1]: > 100 µM (inactive)
GI50 [2]: > 100 µM (inactive)
GI50 [3]: > 100 µM (inactive)
GI50 [4]: > 100 µM (inactive)
GI50 [5]: > 100 µM
GI50 [6]: > 100 µM (inactive)
GI50 [7]: > 100 µM (inactive)
GI50 [8]: > 100 µM (inactive)
GI50 [9]: > 100 µM (inactive)
GI50 [10]: > 100 µM (inactive)
GI50 [11]: > 100 µM (inactive)
GI50 [12]: > 100 µM (inactive)

O=[N+]([O-])c1cc([N+](=O)[O-])c(/C=C/c2ccc(Cl)c(Cl)c2)cc1/C=C/c1ccc(Cl)c(Cl)c1
GI50 [1]: 41.3 µM (inactive)
GI50 [2]: 22.5 µM (inactive)
GI50 [13]: 31.4 µM (inactive)
GI50 [3]: 28.4 µM (inactive)
GI50 [5]: 21.2 µM
GI50 [6]: 20.4 µM (inactive)
GI50 [14]: 36.1 µM (inactive)
GI50 [7]: 19.3 µM (inactive)
GI50 [8]: 21.9 µM (inactive)
GI50 [9]: 52.5 µM (inactive)
GI50 [10]: 23.4 µM (inactive)
GI50 [11]: 27.5 µM (inactive)
GI50 [12]: 17.5 µM (inactive)

O=c1[nH]cc(-c2c[nH]c3ccccc23)nc1-c1c[nH]c2ccccc12
GI50 [1]: 21 µM (inactive)
GI50 [2]: 11.6 µM (inactive)
GI50 [15]: 15.3 µM (inactive)
GI50 [13]: 3.28 µM (inactive)
GI50 [16]: 13.2 µM (inactive)
GI50 [4]: 10.8 µM (inactive)
GI50 [5]: 11.1 µM
GI50 [17]: 12.3 µM (inactive)
GI50 [18]: 14.2 µM (inactive)
GI50 [6]: 14.7 µM (inactive)
GI50 [19]: 16.4 µM (inactive)
GI50 [14]: 11.2 µM (inactive)
GI50 [7]: 9.73 µM (inactive)
GI50 [8]: 8.63 µM (inactive)
GI50 [20]: 8.55 µM (inactive)
GI50 [9]: 11.7 µM (inactive)
GI50 [10]: 13 µM (inactive)
GI50 [11]: 11.1 µM (inactive)
GI50 [12]: 8.51 µM (inactive)

c1ccc2c(c1)CCc1[nH]c3c(c1-2)-c1ccccc1CC3
GI50 [1]: 77.1 µM (inactive)
GI50 [2]: > 100 µM (inactive)
GI50 [15]: > 100 µM (inactive)
GI50 [13]: 91.6 µM (inactive)
GI50 [16]: > 100 µM (inactive)
GI50 [4]: 96.8 µM (inactive)
GI50 [5]: 48.1 µM
GI50 [17]: > 100 µM (inactive)
GI50 [18]: 36.9 µM (inactive)
GI50 [6]: > 100 µM (inactive)
GI50 [19]: 98.6 µM (inactive)
GI50 [14]: > 100 µM (inactive)
GI50 [7]: 43.1 µM (inactive)
GI50 [8]: > 100 µM (inactive)
GI50 [20]: 90.2 µM (inactive)
GI50 [9]: 98.6 µM (inactive)
GI50 [10]: > 100 µM (inactive)
GI50 [11]: > 100 µM (inactive)
GI50 [12]: > 100 µM (inactive)

COC(=O)c1csnn1
GI50 [1]: > 100 µM (inactive)
GI50 [2]: > 100 µM (inactive)
GI50 [3]: > 100 µM (inactive)
GI50 [4]: > 100 µM (inactive)
GI50 [5]: > 100 µM
GI50 [6]: > 100 µM (inactive)
GI50 [7]: > 100 µM (inactive)
GI50 [8]: > 100 µM (inactive)
GI50 [9]: > 100 µM (inactive)
GI50 [10]: > 100 µM (inactive)
GI50 [11]: > 100 µM (inactive)
GI50 [12]: > 100 µM (inactive)

CSc1nc(=O)c(C#N)c(-c2ccccc2)n1C1OC(COC(C)=O)C(OC(C)=O)C(OC(C)=O)C1OC(C)=O (stereo not drawn)
GI50 [1]: 69.3 µM (inactive)
GI50 [2]: > 100 µM (inactive)
GI50 [15]: > 100 µM (inactive)
GI50 [13]: > 100 µM (inactive)
GI50 [16]: > 100 µM (inactive)
GI50 [4]: 79.4 µM (inactive)
GI50 [5]: > 100 µM
GI50 [17]: 46.9 µM (inactive)
GI50 [18]: 39.8 µM (inactive)
GI50 [6]: > 100 µM (inactive)
GI50 [19]: > 100 µM (inactive)
GI50 [14]: > 100 µM (inactive)
GI50 [7]: > 100 µM (inactive)
GI50 [8]: > 100 µM (inactive)
GI50 [20]: 86.3 µM (inactive)
GI50 [9]: > 100 µM (inactive)
GI50 [10]: > 100 µM (inactive)
GI50 [11]: > 100 µM (inactive)
GI50 [12]: 39.2 µM (inactive)

CN(C)CC1CN/C(=N\C(=O)Nc2ccccc2)O1 (stereo not drawn)
GI50 [1]: > 100 µM (inactive)
GI50 [2]: > 100 µM (inactive)
GI50 [15]: > 100 µM (inactive)
GI50 [13]: > 100 µM (inactive)
GI50 [16]: > 100 µM (inactive)
GI50 [4]: > 100 µM (inactive)
GI50 [5]: > 100 µM
GI50 [17]: > 100 µM (inactive)
GI50 [18]: > 100 µM (inactive)
GI50 [6]: > 100 µM (inactive)
GI50 [19]: > 100 µM (inactive)
GI50 [14]: > 100 µM (inactive)
GI50 [7]: > 100 µM (inactive)
GI50 [8]: > 100 µM (inactive)
GI50 [20]: > 100 µM (inactive)
GI50 [9]: > 100 µM (inactive)
GI50 [10]: > 100 µM (inactive)
GI50 [11]: > 100 µM (inactive)
GI50 [12]: > 100 µM (inactive)
